Results: PubChem BioAssay (NCI)
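Cells were grown in 96-well plates and exposed to each compound for 48 hours at five concentrations; endpoints were interpolated linearly between bracketing concentrations, or set to the highest concentration if not reached. The concentration for 50% growth inhibition is given as GI50. TGI denotes the concentration required for complete inhibition of growth.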

How the values were obtained:
Experiment in all cases: NCI tumour cell line growth inhibition, 48 h
[1] = test system: UACC-257 melanoma
[2] = test system: HT29 colon
[3] = test system: SNB-75 CNS
[4] = test system: RPMI-8226 leukemia
[5] = test system: OVCAR-3 ovarian
[6] = test system: ACHN renal
[7] = test system: OVCAR-4 ovarian
[8] = test system: IGROV1 ovarian
[9] = test system: SK-MEL-5 melanoma
[10] = test system: MOLT-4 leukemia
[11] = test system: 786-0 renal
[12] = test system: CCRF-CEM leukemia
[13] = test system: U251 CNS
[14] = test system: HCT-116 colon
[15] = test system: LOX IMVI melanoma
[16] = test system: NCI-H522 lung
[17] = test system: HOP-62 NSCLC
[18] = test system: MDA-MB-468 breast
[19] = test system: CAKI-1 renal
[20] = test system: TK-10 renal
[21] = test system: PC-3 prostate
[22] = test system: UACC-62 melanoma
[23] = test system: SW-620 colon
[24] = test system: OVCAR-8 ovarian
[25] = test system: KM12 colon
[26] = test system: BT-549 breast
[27] = test system: UO-31 renal
[28] = test system: SK-MEL-28 melanoma
[29] = test system: HOP-92 NSCLC
[30] = test system: K-562 leukemia
[31] = test system: MDA-MB-231 breast
[32] = test system: A498 renal
[33] = test system: COLO 205 colon
[34] = test system: T-47D breast
[35] = test system: SNB-19 CNS
[36] = test system: SF-268 CNS
[37] = test system: HCT-15 colon
[38] = test system: MALME-3M melanoma
[39] = test system: A549 NSCLC
[40] = test system: NCI-H226 lung
[41] = test system: HS 578T breast
[42] = test system: SF-539 CNS
[43] = test system: SF-295 CNS
[44] = test system: MDA-MB-435
[45] = test system: NCI-H23 lung
[46] = test system: SK-MEL-2 melanoma
[47] = test system: NCI/ADR-RES ovarian
[48] = test system: M14 melanoma
[49] = test system: HL-60(TB) leukemia
[50] = test system: SN12C renal
[51] = test system: OVCAR-5 ovarian
[52] = test system: EKVX NSCLC
[53] = test system: RXF 393 renal
[54] = test system: SK-OV-3 ovarian
[55] = test system: DU-145 prostate
[56] = test system: MCF7 breast
[57] = test system: HCC-2998 colon
[58] = test system: NCI-H460 lung

Cn1cc(-c2cc(N)n3nc(-c4cn(C)c5ncc(Br)cc45)cc3n2)c2cc(Br)cnc21
GI50 [1]: 2.28 µM
TGI [1]: 5.33 µM
GI50 [2]: 1.8 µM
TGI [2]: 3.44 µM
GI50 [3]: 8.48 µM
TGI [3]: 26.3 µM
GI50 [4]: 2.23 µM
TGI [4]: 5.87 µM
GI50 [5]: 1.72 µM
TGI [5]: 3.21 µM
GI50 [6]: 1.96 µM
TGI [6]: 3.72 µM
GI50 [7]: 2.11 µM
TGI [7]: 4.57 µM
GI50 [8]: 4.65 µM
TGI [8]: 18.5 µM
GI50 [9]: 3.95 µM
TGI [9]: 16.8 µM
GI50 [10]: 1.53 µM
TGI [10]: 4.37 µM
GI50 [11]: 1.77 µM
TGI [11]: 3.46 µM
GI50 [12]: 1.43 µM
TGI [12]: 3.72 µM
GI50 [13]: 1.93 µM
TGI [13]: 3.89 µM
GI50 [14]: 1.72 µM
TGI [14]: 3.3 µM
GI50 [15]: 1.59 µM
TGI [15]: 2.96 µM
GI50 [16]: 2.27 µM
TGI [16]: 5.52 µM
GI50 [17]: 2.36 µM
TGI [17]: 6.63 µM
GI50 [18]: 1.54 µM
TGI [18]: 2.95 µM
GI50 [19]: 3.68 µM
TGI [19]: 15.4 µM
GI50 [20]: 1.79 µM
TGI [20]: 4.03 µM
GI50 [21]: 2.49 µM
TGI [21]: 8.41 µM
GI50 [22]: 1.58 µM
TGI [22]: 3.03 µM
GI50 [23]: 1.77 µM
TGI [23]: 3.59 µM
GI50 [24]: 2.49 µM
TGI [24]: 6.67 µM
GI50 [25]: 1.83 µM
TGI [25]: 5.81 µM
GI50 [26]: 3.38 µM
TGI [26]: 14.1 µM
GI50 [27]: 6.81 µM
TGI [27]: 22.1 µM
GI50 [28]: 1.77 µM
TGI [28]: 3.35 µM
GI50 [29]: 1.71 µM
TGI [29]: 6.42 µM
GI50 [30]: 2.34 µM
TGI [30]: 8.45 µM
GI50 [31]: 2.59 µM
TGI [31]: 9.79 µM
GI50 [32]: > 100 µM
TGI [32]: > 100 µM
GI50 [33]: 4.29 µM
TGI [33]: 31.8 µM
GI50 [34]: 2.35 µM
TGI [34]: 9.43 µM
GI50 [35]: 1.95 µM
TGI [35]: 4.05 µM
GI50 [36]: 7.52 µM
TGI [36]: 38 µM
GI50 [37]: 1.59 µM
TGI [37]: 3.24 µM
GI50 [38]: 1.93 µM
TGI [38]: 3.49 µM
GI50 [39]: 2.07 µM
TGI [39]: 4.97 µM
GI50 [40]: 8.32 µM
TGI [40]: 26.4 µM
GI50 [41]: 3.19 µM
TGI [41]: 15.7 µM
GI50 [42]: 1.71 µM
TGI [42]: 3.18 µM
GI50 [43]: 1.86 µM
TGI [43]: 4.02 µM
GI50 [44]: 1.95 µM
TGI [44]: 4.29 µM
GI50 [45]: 1.92 µM
TGI [45]: 3.76 µM
GI50 [46]: 2.01 µM
TGI [46]: 4.4 µM
GI50 [47]: 2.04 µM
TGI [47]: 4.7 µM
GI50 [48]: 1.65 µM
TGI [48]: 3.16 µM
GI50 [49]: 2 µM
TGI [49]: 4.94 µM
GI50 [50]: 10.6 µM
TGI [50]: 34.9 µM
GI50 [51]: 10.5 µM
TGI [51]: 33.9 µM
GI50 [52]: 2.18 µM
TGI [52]: 8.92 µM
GI50 [53]: 2.62 µM
TGI [53]: 6.9 µM
GI50 [54]: 19.1 µM
TGI [54]: 36.4 µM
GI50 [55]: 2.54 µM
TGI [55]: 6.77 µM
GI50 [56]: 1.72 µM
TGI [56]: 4.12 µM
GI50 [57]: 1.73 µM
TGI [57]: 3.44 µM
GI50 [58]: 1.91 µM
TGI [58]: 3.89 µM
